Key:
[1] = system: 60 human tumor cell line panel; assay: NCI 60 cell line one-dose SRB primary anticancer assay; type: cell-based; conditions: 60 cell lines assay in one dose, 10µM (title; head prints 10.0 mM), 48 h; for inhibition at 10 µM: Homo sapiens, read-out: MGI % (Mean growth inhibition percentage)
Experimental: (§1) A primary anticancer assay was performed for an approximately 60 human tumor cell line panel derived from nine neoplastic diseases, in accordance with the protocol of the Drug Evaluation Branch, National Cancer Institute, Bethesda, MD (Monks A. et al., J. Natl. Cancer Inst 1991, 83, 757-766; Boyd M.R. and Paull K.D., Drug. Dev. Res. 1995, 34, 91-109; Shoemaker R.H., Nat. Rev. Cancer 2006, 6, 813-823). Briefly, tested compounds were added to the culture at a single concentration (10^-5M), and the cultures were incubated for 48 h. End point determinations were made with a protein binding dye, sulforhodamine B (SRB). The results for each tested compound were reported as the growth percentage of the treated cells when compared to that of the untreated control cells. The percentage growth was evaluated spectrophotometrically versus controls not treated with test agents.

[2] = system: PRMI-8226; assay: NCI one-dose SRB growth assay; type: cell-based; conditions: Homo sapiens; PRMI-8226 (Leukemia), 10^-5 M, 48 h; read-out: % Growth Inhibition (GI %)
Experimental: as §1

[3] = system: SF-268; assay: NCI one-dose SRB growth assay; type: cell-based; conditions: Homo sapiens; SF-268 (CNS Cancer), 10^-5 M, 48 h; read-out: % Growth Inhibition (GI %)
Experimental: as §1

[4] = system: HCT-15; assay: NCI one-dose SRB growth assay; type: cell-based; conditions: Homo sapiens; HCT-15 (Colon Cancer), 10^-5 M, 48 h; read-out: % Growth Inhibition (GI %)
Experimental: as §1

[5] = system: 786-0; assay: NCI one-dose SRB growth assay; type: cell-based; conditions: Homo sapiens; 786-0 (Renal Cancer), 10^-5 M, 48 h; read-out: % Growth Inhibition (GI %)
Experimental: as §1

[6] = system: UACC-257; assay: NCI one-dose SRB growth assay; type: cell-based; conditions: Homo sapiens; UACC-257 (Melanoma), 10^-5 M, 48 h; read-out: % Growth Inhibition (GI %)
Experimental: as §1

[7] = system: K-562; assay: NCI one-dose SRB growth assay; type: cell-based; conditions: Homo sapiens, K562; K-562 (Leukemia), 10^-5 M, 48 h; read-out: % Growth Inhibition (GI %)
Experimental: as §1

[8] = system: SNB-75; assay: NCI one-dose SRB growth assay; type: cell-based; conditions: Homo sapiens; SNB-75 (CNS Cancer), 10^-5 M, 48 h; read-out: % Growth Inhibition (GI %)
Experimental: as §1

[9] = system: SF-539; assay: NCI one-dose SRB growth assay; type: cell-based; conditions: Homo sapiens; SF-539 (CNS Cancer), 10^-5 M, 48 h; read-out: % Growth Inhibition (GI %)
Experimental: as §1

[10] = system: COLO 205; assay: NCI one-dose SRB growth assay; type: cell-based; conditions: Homo sapiens; COLO 205 (Colon Cancer), 10^-5 M, 48 h; read-out: % Growth Inhibition (GI %)
Experimental: as §1

[11] = system: HOP-62; assay: NCI one-dose SRB growth assay; type: cell-based; conditions: Homo sapiens; HOP-62 (Non-Small Cell Lung Cancer), 10^-5 M, 48 h; read-out: % Growth Inhibition (GI %)
Experimental: as §1

[12] = system: SW-620; assay: NCI one-dose SRB growth assay; type: cell-based; conditions: Homo sapiens; SW-620 (Colon Cancer), 10^-5 M, 48 h; read-out: % Growth Inhibition (GI %)
Experimental: as §1

[13] = system: MDA-MB-231/ATCC; assay: NCI one-dose SRB growth assay; type: cell-based; conditions: Homo sapiens; MDA-MB- 231/ATCC (Breast Cancer), 10^-5 M, 48 h; read-out: % Growth Inhibition (GI %)
Experimental: as §1

[14] = system: DU-145; assay: NCI one-dose SRB growth assay; type: cell-based; conditions: Homo sapiens; DU-145 (Prostate Cancer), 10^-5 M, 48 h; read-out: % Growth Inhibition (GI %)
Experimental: as §1

[15] = system: HT29; assay: NCI one-dose SRB growth assay; type: cell-based; conditions: Homo sapiens, HT-29; HT29 (Colon Cancer), 10^-5 M, 48 h; read-out: % Growth Inhibition (GI %)
Experimental: as §1

[16] = system: CCRF-CEM; assay: NCI one-dose SRB growth assay; type: cell-based; conditions: Homo sapiens; CCRF-CEM (Leukemia), 10^-5 M, 48 h; read-out: % Growth Inhibition (GI %)
Experimental: as §1

[17] = system: OVCAR-5; assay: NCI one-dose SRB growth assay; type: cell-based; conditions: Homo sapiens; OVCAR-5 (Ovarian Cancer), 10^-5 M, 48 h; read-out: % Growth Inhibition (GI %)
Experimental: as §1

[18] = system: MOLT-4; assay: NCI one-dose SRB growth assay; type: cell-based; conditions: Homo sapiens; MOLT-4 (Leukemia), 10^-5 M, 48 h; read-out: % Growth Inhibition (GI %)
Experimental: as §1

[19] = system: MCF7; assay: NCI one-dose SRB growth assay; type: cell-based; conditions: Homo sapiens; MCF7 (Breast Cancer), 10^-5 M, 48 h; read-out: % Growth Inhibition (GI %)
Experimental: as §1

[20] = system: melanoma; assay: NCI five-dose SRB assay, subpanel average; conditions: 48 h
[21] = system: colon cancer; assay: NCI five-dose SRB assay, subpanel average; conditions: 48 h
[22] = system: NSC lung cancer; assay: NCI five-dose SRB assay, subpanel average; conditions: 48 h
[23] = system: renal cancer; assay: NCI five-dose SRB assay, subpanel average; conditions: 48 h
[24] = system: full panel of about 60 human tumor cell lines; assay: NCI five-dose SRB assay, full panel mean; conditions: 48 h
[25] = system: breast cancer; assay: NCI five-dose SRB assay, subpanel average; conditions: 48 h
[26] = Homo sapiens, read-out: GI50 (median growth inhibitory)
[27] = Homo sapiens, read-out: LC50 (median lethal)

| Structure (SMILES) | PCE (Positive cytotoxic effect: ratio between number of cell lines with percentage growth inhibition from 10 to >100 and total number of cell lines) [1] | RGI % (Range of growth inhibition percentage) [1] [%] | inhibition at 10 µM [1] [%] | inhibition at 10 µM [2] [%] | inhibition at 10 µM [3] [%] | inhibition at 10 µM [4] [%] | inhibition at 10 µM [5] [%] | inhibition at 10 µM [6] [%] | inhibition at 10 µM [7] [%] | inhibition at 10 µM [8] [%] | inhibition at 10 µM [9] [%] | inhibition at 10 µM [10] [%] | inhibition at 10 µM [12] [%] | inhibition at 10 µM [13] [%] | inhibition at 10 µM [14] [%] | inhibition at 10 µM [15] [%] | inhibition at 10 µM [16] [%] | inhibition at 10 µM [17] [%] | inhibition at 10 µM [18] [%] | inhibition at 10 µM [19] [%] | also measured |
| --- | --- | --- | --- | --- | --- | --- | --- | --- | --- | --- | --- | --- | --- | --- | --- | --- | --- | --- | --- | --- | --- |
| O=C(O)c1cn(C2CC2)c2cc(N3CCN(S(=O)(=O)c4ccc(Cl)cc4Cl)CC3)c(F)cc2c1=O [Compound 2b] | 30/58 | 79.75 to 11.78 | 17.4 | 21.3 | 16.4 | 16.2 | < 10 | < 10 | < 10 | 70.2 | < 10 | 11.9 | < 10 | < 10 | < 10 | < 10 | 19 | < 10 | 24.1 | 82.4 | inhibition at 10 µM [11]: 11.8% |
| CCn1cc(C(=O)O)c(=O)c2cc(F)c(N3CCN(S(=O)(=O)c4ccc(Cl)cc4)CC3)cc21 [Compound 1a] | 56/56 | >100.0 to 31.3 | 75.6 | 86.6 | 77.3 | 84.3 | 76.3 | 71 | 78.6 | 58.2 | 78.3 | 87.9 | 76 | 58.9 | 68.3 | 92.1 | > 100 | 48.1 | 76.4 | 85.7 | GI50 [20, 26]: 2.56 µM; CC50 [20, 27]: 89.7 µM; TGI (total growth inhibitory) ([20]; average over melanoma subpanel, five concentrations): 29.36 µM; GI50 [21, 26]: 3.38 µM; CC50 [21, 27]: 95.2 µM; TGI (total growth inhibitory) ([21]; average over colon cancer subpanel, five concentrations): 73.15 µM; GI50 [22, 26]: 2.87 µM; CC50 [22, 27]: > 100 µM; TGI (total growth inhibitory) ([22]; average over NSC lung cancer subpanel, five concentrations): 53.38 µM; GI50 [23, 26]: 2.93 µM; CC50 [23, 27]: > 100 µM; TGI (total growth inhibitory) ([23]; average over renal cancer subpanel, five concentrations): 54.00 µM; CC50 ([24]; Homo sapiens, 60 cell, read-out: LC50 MG-MID (Full panel mean-graph midpoint)): 95.5 µM; GI50 ([24]; Homo sapiens, read-out: GI50 MG-MID (Full panel mean-graph midpoint)): 2.95 µM; TGI MG-MID (Full panel mean-graph midpoint) ([24]; full panel, five concentrations): 29.51 µM; GI50 [25, 26]: 2.95 µM; CC50 [25, 27]: > 100 µM; TGI (total growth inhibitory) ([25]; average over breast cancer subpanel, five concentrations): 54.63 µM |
| CCn1cc(C(=O)O)c(=O)c2cc(F)c(N3CCN(S(=O)(=O)c4c(C)cc(C)cc4C)CC3)cc21 [Compound 6a] | 46/58 | 66.90 to 10.12 | 18.3 | 35.9 | 16.3 | 28.5 | < 10 | < 10 | 20.1 | 29.2 | 20.1 | < 10 | < 10 | 16.3 | < 10 | < 10 | 18.2 | 11.4 | 24.1 | < 10 | inhibition at 10 µM [11]: 28.5% |
